Data taken from patent publication US20260256790A1, “DEBIO-0123 IN COMBINATION WITH TEMOZOLOMIDE AND RADIOTHERAPY FOR USE IN TREATING GLIOMA” (Debiopharm International S.A., priority 2023, published 2026).
“And” between values parts separate entries of the source, which are not always exact repeats. Identical values can stand only once. Like-named read-outs stand apart in the source and are kept apart here.

Assays:
[1] = Plasma and brain concentrations (PK) in healthy mice after oral dosing; assay type: in vivo, Nu/Nu mice; conditions: for Kp at 72 h: brain/plasma
Method: Healthy male Nu/Nu mice were treated orally with either (i) a single dose of 30 mg/kg Compound of formula (I) ([…], 3 mice per time-point), (ii) 30 mg/kg of Compound of formula (I) given once a day for four consecutive days (27 mice in total, 3 mice per time-point), (iii) 30 mg/kg of AZD-1775 (adavosertib, purchased from Combi-Blocks, San Diego, USA) given twice a day for three consecutive days and once on day four (27 mice in total, 3 mice per time-point), (iv) or 80 mg/kg of Zn-c3 (purchased from EOS Med Chem, Jina City, China) given once a day for four consecutive days (27 mice in total, 3 mice per time-point). The doses used for each compound have previously been reported as active dose levels. Compound of formula (I) was formulated as a suspension in 0.5% methylcellulose with 1% Tween 80 and administered at a concentration of 3.0 mg/mL. […] The dosing volume of all formulations was 10 mL/kg. At designated time-points the mice were euthanized by carbon dioxide inhalation, blood samples were collected by cardiac puncture into K2EDTA containing tubes. The tubes were inverted several times, placed on ice and centrifuged within 30 min of collection (4° C. for 5 min at 6000 rpm) to obtain plasma. The plasma samples were snap frozen in dry ice and stored at −80° C. until analysis. The brain was collected, weighed and snap frozen in dry ice until further analysis. To obtain brain homogenates, firstly water was added to each brain (brain weight:water volume=1:4) then the brain was homogenized with a H-speed dispersator (time procedure: homogenizing for 10 s and interval of 10 s per time, total 3-5 times; cleaning procedure for dispersator: Water-Methanol-Ethanol-Water, 10 s each). The brain homogenate samples were transferred to individual tubes and stored at −80° C. prior to analysis. The mouse plasma and brain samples were analysed as follows. For each analytical batch of plasma and brain samples, the standard and quality control (QC) samples were freshly prepared in blank male Nu/Nu mouse plasma (with K2EDTA anticoagulant) and brain homogenate. To an aliquot of each standard, QC, control blank and study samples, internal standard (^13CD6-Compound of formula (I) for Compound of formula (I), terfenadine for AZD-1775 and Zn-c3) in methanol/acetonitrile (1:1, v/v) was added. The samples were mixed for 1 minute and centrifuged at 4000 rpm at 4° C. for 15 minutes. Supernatants were transferred and diluted in MeOH/water (1:1, v/v, with 0.1% FA) prior to LC-MS/MS injection. Chromatographic separation was achieved on an Shimadzu LC-20AD using a Kinetex 2.6μ C18 100A column (50 mm*3.00 mm) for Compound of formula (I) and AZD-1775 samples and a ACE 5 C4 column (50 mm*2.1 mm) for Zn-c3 samples with gradient elution using the following conditions: flow rate: 0.7 mL/min; run time: 3.0 min; mobile phase: A: 5 mM NH4OAc (0.1% FA), B: Acetonitrile (0.1% FA). Detection was accomplished with an AB Sciex 5500 utilizing electrospray MS/MS in positive ion multiple reaction monitoring mode (MRM). The MRM channels were 511.29/98 for Compound of formula (I), 501.47/442.20 for AZD-1775 and 527.36/468.10 for Zn-c3. The MRM channels of internal standard were 518.17/102.10 (^13CD6-Compound of formula (I)) for Compound of formula (I), 472.40/436.40 (terfenadine) for AZD-1775 and Zn-c3. The measured plasma and brain concentrations at each time-point, the nominal sample collection time, and intended dosages were used for pharmacokinetic analysis. The PK parameters of all study compounds were determined by non-compartmental analysis using WinNonlin Version 8.0 (Pharsight).

[2] = Drug concentration in monkey brain and plasma after daily oral administration for 91 days; assay type: in vivo, cynomolgus monkeys; conditions: 10 mg/kg oral once a day for 91 days
Method: Compound of formula (I) was orally given to 3 female cynomolgus monkeys by gavage once a day for 91 days. The volume of administration was 5 mL/kg, and the vehicle was an aqueous solution of 0.5% (w/v) methylcellulose (cps 400) and 1% (w/v) Tween 80. The Compound of formula (I) dose was 10 mg/kg; this dose level was assessed in this study to be the […] no adverse effect level (NOAEL) based on general toxicology evaluation. The animals were necropsied 24 hours after the last dose after an overnight period without food. A sample from brain tissue (left forebrain) was collected from each animal, snap frozen in liquid nitrogen. and stored frozen at <−50° C. Blood samples were taken from the femoral vein into tubes containing K2EDTA, fully inverted approximately 10 times, and placed on crushed wet ice until centrifugation at 2300 g for 10 minutes at approximately 4° C. The resultant plasma was separated, transferred into polypropylene tubes, and frozen at <−50° C. Tissue and plasma samples were transported frozen on dry ice to the respective sites of analysis.
The monkey plasma samples were analyzed for their contents in Compound of formula (I) and N^32-desmethyl-Compound of formula (I) as follows. The plasma samples were fortified in human K2-EDTA plasma (1:9 monkey:human volume ratio) prior to extraction. All solution preparations and dilutions were conducted under sodium vapor light and in “low-binding” quality polypropylene tubes and deep-well plates. The analytes and internal standards (^13CD6-Compound of formula (I) and D7-N^32-desmethyl-Compound of formula (I)) were extracted by protein precipitation with 5M aqueous urea (40 μL for 50 μL plasma), and then analyzed by LC-MS/MS. Chromatographic separation was achieved on an Synergi Polar-RP, 80A, 4 μm 75×2.00 mm column (Phenomenex) with gradient elution using a mixture of 0.1% formic acid in water as eluent A and 0.1% formic acid in acetonitrile as eluent B (5% B from 0 to 0.50 min, 42% B at 4.5 min, 95% B from 4.60 min to 5.50 min, 5% B at 5.60 min, 100% B at 5.70 min, 5% B at 6.40 min, 100% B at 6.50 min, 5% B at 7.00 min; 800 μl/min, 70° C.). Detection was accomplished with a AB Sciex 6500+ mass spectrometer utilizing electrospray MS/MS in positive ion multiple reaction monitoring mode (MRM). The lower limits of quantification for Compound of formula (I) and N^32-desmethyl-Compound of formula (I) were 5.00 ng/mL and 2.50 ng/mL, respectively.
The monkey brain tissue samples were analyzed for their contents in Compound of formula (I) and N^32-desmethyl-Compound of formula (I) as follows. Tissue samples were homogenized in human plasma (1 mg tissue for 10 μL plasma) at +4° C. using a Precelly Evolution system. The analytes (Compound of formula (I) and N^32-desmethyl-Compound of formula (I)) were extracted by protein precipitation with methanol/acetonitrile (9:1, v:v) containing the internal standards (^13CD6-Compound of formula (I) and D7-N^32-desmethyl-Compound of formula (I)) and then analyzed by UHPLC-MS/MS. Chromatographic separation was achieved on a HSS T3 1.8 μm, 2.1×100 mme column (Waters) with gradient elution using a mixture of 0.1% formic acid in water as eluent A, and 0.1% formic acid in acetonitrile as eluent B (20% B from 0 to 0.50 min, 90% B from 1.80 min to 2.30 min, 20% B at 2.60 min; 0.6 mL/min, room temperature). Detection was accomplished with Xevo TQ-S mass spectrometer (Waters) utilizing electrospray MS/MS in positive ion multiple reaction monitoring mode (MRM). The lower limits of quantification for Compound of formula (I) and N^32-desmethyl-Compound of formula (I) were 55.00 ng/g tissue and 22.00 ng/g tissue, respectively.

[3] = CSF and matching plasma concentrations in glioma patients (clinical trial Arms A and B); assay type: in vivo, human
Method: In the clinical trial described in Example 9, cerebrospinal fluid (CSF) stabilized with formic acid 0.5% and matching plasma samples collected on K2 EDTA were drawn from 3 patients of Arm A on day 11 of cycle 1 (i.e. 2 patients at 150 mg and 1 patient at 200 mg of Study drug) and 1 patient of Arm B on Week 3 day 1 (i.e. Day 15 after daily doses of Study drug at 90 mg).
Study drug (parent, active moiety) and its active metabolite N^32-desmethyl-Study drug were measured using LC-MS/MS methods. Results were provided in ng per mL of plasma or CSF, and then converted to nmol/L using the molecular weights of the Study drug (511.45 g/mol) and N^32-desmethyl-Study drug (497.42 g/mol).
(§1) Thus, the unbound (or free fraction) of the Study Drug and the N^32-desmethyl-Study drug are calculated.
In CSF, the total protein concentration varies between 0.2% and 0.5% of the total protein concentration of blood (H. Reiber, Clinica Chimica Acta, 2001; Schilde L M et al., PLoS ONE, 2018), therefore the concentration measured in CSF essentially corresponds to the free fraction of the compounds.
For each of the 4 patients, the ratio CSF/plasma of a given compound (Study drug parent or metabolite) was calculated using the CSF concentration of said compound (in nmol/L) and the unbound or free fraction of said compound in plasma (in nmol/L).

plasma proteins = assay: Binding to plasma proteins; assay type: in vitro ADME
Method: as §1

[4] = 30 mg/kg, bid for 3 days and once on day 4, oral, day 4
[5] = Arm A, 150 mg, day 11 of cycle 1, listed as N^32-desmethyl-Study drug
[6] = Arm A, 200 mg, day 11 of cycle 1
[7] = Arm B, 90 mg daily, Week 3 day 1 (Day 15)

With `C=CCn1c(=O)c2cnc(Nc3ccc(N4CCN(C)CC4)cc3)nc2n1-c1cccc(C(C)(C)O)n1` [AZD-1775, adavosertib, reference compound] the “AUCInf, brain” value [1, 4] was 99.7 ng·h/g, the “AUCLast, brain” value [1, 4] was 94.5 ng·h/g and the “Cmax, brain” value [1, 4] was 53.9 ng/g. The Kp at 72 h ([1]; male, Nu/Nu, mouse, po, 30 mg/kg, bid for 3 days and once on day 4, oral, day 4, read-out: Brain to plasma ratio based on AUCInf) was 0.051, the Kp at 72 h ([1]; male, Nu/Nu, mouse, po, 30 mg/kg, bid for 3 days and once on day 4, oral, day 4, read-out: Brain to plasma ratio based on AUCLast) was 0.048 and the Kp at 72 h ([1]; male, Nu/Nu, mouse, po, 30 mg/kg, bid for 3 days and once on day 4, oral, day 4, read-out: Brain to plasma ratio based on Cmax) was 0.043. The Cmax ([1]; male, Nu/Nu, mouse, plasma, po, 30 mg/kg, bid for 3 days and once on day 4, oral, day 4) was 1260 ng/mL, the AUC(0-inf) ([1]; male, Nu/Nu, mouse, plasma, po, 30 mg/kg, bid for 3 days and once on day 4, oral, day 4, read-out: AUCInf, plasma) was 1960 ng·h/mL and the AUC(0-t) ([1]; male, Nu/Nu, mouse, plasma, po, 30 mg/kg, bid for 3 days and once on day 4, oral, day 4, read-out: AUCLast, plasma) was 1950 ng·h/mL.

For `Cc1cc(Nc2ncc3c(n2)N(C)CN(c2c(Cl)cccc2Cl)C3=O)ccc1C1CCNCC1` [N^32-Desmethyl-Compound of formula (I)], the “Mean brain:plasma ratio (±SD), at 24 h post last dose (n = 3)” value [2] was 0.73 ± 0.21, the “Brain:plasma concentration ratio, at 24 h post last dose” value ([2]; individual animals) was 0.49 and 0.81 and 0.88 and the “Plasma concentration at 24 h post last dose” value ([2]; individual animals) was 531 ng/mL and 233 ng/mL and 365 ng/mL. The “Brain concentration at 24 h post last dose” value ([2]; left forebrain, individual animals) was 258 ng/g tissue and 188 ng/g tissue and 323 ng/g tissue, the CSF/plasma ratio ([3]; 4 patients, Arms A and B) was “about 5%” and the CSF concentration [3, 5] was 0.23 nmol/L and 0.26 nmol/L. The “CSF to “unbound plasma” ratio” value [3, 5] was 0.06 and 0.05, the “Raw data concentration in CSF” value [3, 5] was 0.114 ng/mL and 0.128 ng/mL and the “Raw data concentration in plasma” value [3, 5] was 17.7 ng/mL and 15.6 ng/mL. The Unbound plasma concentration [3, 5] was 4.59 nM and 4.05 nM, the CSF concentration [3, 6] was 0.31 nmol/L and the “CSF to “unbound plasma” ratio” value [3, 6] was 0.05. The “Raw data concentration in CSF” value [3, 6] was 0.154 ng/mL, the “Raw data concentration in plasma” value [3, 6] was 23.2 ng/mL and the Unbound plasma concentration [3, 6] was 6.02 nM. The CSF concentration [3, 7] was 0.61 nmol/L, the “CSF to “unbound plasma” ratio” value [3, 7] was 0.05 and the “Raw data concentration in CSF” value [3, 7] was 0.302 ng/mL. The “Raw data concentration in plasma” value [3, 7] was 42.8 ng/mL, the Unbound plasma concentration [3, 7] was 11.10 nM and the “Active metabolite in plasma as share of Study drug parent” value ([3]; patient plasma) was “about 10%”. The “Bound to plasma proteins” value (plasma proteins) was 87.1%.

For `C=CCn1c(=O)c2cnc(Nc3ccc(N4CCN(C)CC4)cc3)nc2n1-c1ccc2c(n1)[C@@](O)(CC)CC2` [Zn-c3, reference compound], the “AUCInf, brain” value ([1]; mouse, in vivo, po, 80 mg/kg) was 878 ng·h/g, the “AUCInf, plasma” value ([1]; mouse, in vivo, po, 80 mg/kg) was 14180 ng·h/mL and the “AUCLast, brain” value ([1]; mouse, in vivo, po, 80 mg/kg) was 396 ng·h/g. For the same compound, the “AUCLast, plasma” value ([1]; mouse, in vivo, po, 80 mg/kg) was 14179 ng·h/mL, the “Brain to plasma ratio based on AUCInf” value ([1]; mouse, in vivo, po, 80 mg/kg) was 0.062 and the “Brain to plasma ratio based on AUCLast” value ([1]; mouse, in vivo, po, 80 mg/kg) was 0.028. The “Brain to plasma ratio based on Cmax” value ([1]; mouse, in vivo, po, 80 mg/kg) was 0.035, the “Cmax, brain” value ([1]; mouse, in vivo, po, 80 mg/kg) was 97.2 ng/g and the “Cmax, plasma” value ([1]; mouse, in vivo, po, 80 mg/kg) was 2773 ng/mL.
